Assay results reported in publication PMC5218472 (PLoS Biology, 2017).
Residues, ends and D or L forms follow the SMILES beside them. *: point of attachment. X1 = CC(=O)N[C@@H]1[C@@H](O)[C@H](O[C@@H]2O[C@H](CO)[C@@H](O[C@@H]3O[C@H](CO[C@H]4O[C@H](CO)[C@@H](O)[C@H](O)[C@@H]4O[C@@H]4O[C@H](CO)[C@@H](O[C@@H]5O[C@H](CO)[C@H](O)[C@H](O)[C@H]5O)[C@H](O)[C@H]4NC(C)=O)[C@@H](O)[C@H](O[C@H]4O[C@H](CO)[C@@H](O)[C@H](O)[C@@H]4O[C@@H]4O[C@H](CO)[C@@H](O[C@@H]5O[C@H](CO)[C@H](O)[C@H](O)[C@H]5O)[C@H](O)[C@H]4NC(C)=O)[C@@H]3O)[C@H](O)[C@H]2NC(C)=O)[C@@H](CO)O[C@H]1N*

Experiments:
[1] = target: T1, recombinant catalytic domain of ADAM17 (Homo sapiens, UniProt P78536); assay: In vitro cleavage assay of IL-6R (glyco)peptides with recombinant ADAM17; settings: 50 μM peptide, 25 mM Hepes pH 9.0, 16 h, 37°C, RP chromatography
T1 construct: catalytic domain (aa Pro-18 to Val-477) of ADAM17; purchased Enzo Life Sciences GmbH (Lörrach, Germany)
T1 sequence (P78536 18-477): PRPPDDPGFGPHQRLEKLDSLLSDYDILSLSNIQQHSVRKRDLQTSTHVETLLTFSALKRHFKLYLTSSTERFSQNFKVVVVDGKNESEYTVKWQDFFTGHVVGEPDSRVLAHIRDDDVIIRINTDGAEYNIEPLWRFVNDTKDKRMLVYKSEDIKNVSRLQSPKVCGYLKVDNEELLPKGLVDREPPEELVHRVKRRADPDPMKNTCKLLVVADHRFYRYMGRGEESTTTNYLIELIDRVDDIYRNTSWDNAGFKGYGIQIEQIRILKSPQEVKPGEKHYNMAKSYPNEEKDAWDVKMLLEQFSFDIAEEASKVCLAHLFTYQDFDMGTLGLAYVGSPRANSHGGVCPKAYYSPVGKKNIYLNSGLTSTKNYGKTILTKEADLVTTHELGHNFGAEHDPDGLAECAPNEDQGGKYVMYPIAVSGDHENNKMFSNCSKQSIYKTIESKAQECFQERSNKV
Procedure: (§1) Fig 7 The N- and O-glycosylated sequon adjacent to the cleavage site is of minor importance for IL-6R cleavage. (A) Amino-acid sequence of the two unglycosylated peptides 1(QD) and 2(QA). Peptides were incubated either with or without recombinant ADAM17 for 16 h at 37°C, and the amount of cleaved peptide was analyzed by reversed-phase (RP) chromatography. (B) Amino-acid sequence of the two glycopeptides 3(QD) and 4(QA), which have a GlcNAc attached to the amino-acid residue corresponding to Asn-350 of the IL-6R. Cleavage was determined as described in panel (A). (C) Amino-acid sequence of the two glycopeptides 5(QD) and 6(QA), which have a biantennary N-glycan attached to the amino-acid residue corresponding to Asn-350 of the IL-6R. Cleavage was determined as described in panel (A). (D) Amino-acid sequence of the two glycopeptides 7(QD) and 8(QA), which have a GalNAc attached to the amino-acid residue corresponding toThr-352 of the IL-6R. Cleavage was determined as described in panel (A). (E) Amino-acid sequence of the two glycopeptides 9(QD) and 10(QA), which have a biantennary N-glycan attached to the amino-acid residue corresponding to Asn-350 and a GalNAc attached to the amino-acid residue corresponding toThr-352 of the IL-6R. Cleavage was determined as described in panel (A). All data shown are the mean ± SD from three independent experiments (*p < 0.05, **p < 0.01, ***p < 0.001, compared to the untreated peptide; ^§p < 0.05, compared to the cleaved nonglycosylated peptide).
(§2) Two 1.5 ml reaction tubes were filled with 50 μl peptide (50 μM) solved in 25 mM Hepes (pH 9.0), and 0.5 μl of the recombinant catalytic domain of ADAM17 was added to one of the reaction tubes, whereas the other sample remained untreated. All samples were incubated for 16 h at 37°C. Afterwards, 1,150 μl 0.1% TFA was added to each sample, and the peptides were separated on a reverse phase chromatography column (Multo High Bio-200-C18) from Chromatographie Service (Langerwehe, Germany) using a linear gradient elution with a binary solvent system and a flow rate of 1 ml/min. Solvent A consisted of 0.1% TFA, and solvent B consisted of 100% ACN. After peak integration, peak areas for cleaved and noncleaved peptides were determined.

[2] = as above; settings: human, isolated enzyme; 50 μM peptide, 25 mM Hepes pH 9.0, recombinant catalytic domain of ADAM17, 16 h, 37°C, reverse phase C18 chromatography, peak areas; mean of 3 independent experiments; read-out: intact peptide after incubation with ADAM17 (untreated peptide = 100), mean
Procedure: as §1, §2

[3] = system: Ba/F3-gp130-IL-6R_DG cells; assay: Proliferation in response to IL-6 or Hyper-IL-6 (S4H Fig); type: cell-based; settings: highest value = 100, mean of n = 3
Procedure: (§3) Proliferation of the different Ba/F3-gp130-IL-6R cell lines in response to IL-6 and Hyper-IL-6 and of Ba/F3-gp130 cells in response to IL-6 and the two different recombinant sIL-6R variants was determined using the Cell Titer Blue Cell viability assay reagent (Promega, Karlsruhe, Germany), following the manufacturer’s protocol as described previously. Values were measured in triplicates per experiment, and relative light units (RLU) obtained after 60 min were normalized by subtraction of control values obtained after 0 min. The maximum proliferation was set to 100%, and all other values were calculated accordingly.
Supplementary file pbio.2000080.s004.tif: S4 Fig Mutation of Val-356 is sufficient to block ADAM10-mediated proteolysis of the IL-6R and the Asp358Ala variant. (A) HEK293 cells were transiently transfected with Expression plasmids encoding the wildtype IL-6R (PV) or the double mutants (IE, DG) as indicated. Cells were either treated with 1 μM ionomycin for 1 h or DMSO as vehicle control. sIL-6R was precipitated from the supernatant with concanavalin A-covered Sepharose beads, and cells were lysed. Both were analyzed via Western blot, and β-actin served as loading control. One out of three experiments with similar outcome is shown. (B, C) The experiment was performed as described under (A), but sIL-6R generation was analyzed via ELISA. In (B), the amount of sIL-6R generated after ionomycin-stimulation of the wildtype IL-6R (PV) was set to 100%, and all other values were calculated accordingly. In (C), the amount of sIL-6R without stimulation was considered as constitutive shedding and set to 1 and the increase of sIL-6R was calculated. Data shown are the mean ± SD from at least three independent experiments (*p<0.05, ns = no significant difference). (D-F) HEK293 cells were transiently transfected with expression plasmids encoding the wildtype IL-6R (PV) or the single mutants (DV, IV, PE, PG) as indicated. The experiments were performed as described in (A) to (C). (G) ADAM10-mediated proteolysis of the IL-6R variants depicted in Fig 4I was analyzed as described in (B). (H) Equal numbers of Ba/F3-gp130-IL-6R_DG cells were incubated for 48 h with increasing amounts (0–100 ng/ml) of either IL-6 or Hyper-IL-6. One representative experiment out of three performed is shown (mean ± SD, biological triplicates). (TIF) Click here for additional data file.

[4] = system: Ba/F3-gp130-hIL-6R 2N cells; assay: Proliferation in response to IL-6 or Hyper-IL-6 (S6B Fig); type: cell-based; settings: highest value = 100, mean of n = 3
Source text: (§4) In order to analyze a functional role for the determined glycans, we created IL-6R mutants that lacked either one, multiple, or all N-glycosylation sites and stably transduced Ba/F3-gp130 cells with these. […] When we analyzed IL-6-dependent proliferation of the individual cell lines, we could not detect a difference between the wild-type IL-6R (Fig 4K), IL-6R mutants lacking one of the five N-glycosylation sites (Fig 6A–6E), IL-6R mutants lacking two (termed 2N), three (3N), or four N-glycosylation sites (4N, S6B–S6D Fig), or the IL-6R mutant that lacked all five N-glycans (5N, Fig 6F). Similarly, mutation of the O-glycosylation site on Thr-352 had no influence on IL-6 signaling (Fig 6G).
as §3
(§5) Supplementary file pbio.2000080.s006.tif: S6 Fig Cell-surface expression and signaling capacity of different N-glycan mutants. (A) Cell-surface expression of the IL-6R on the individual Ba/F3-gp130-IL-6R cell lines. The stably transduced IL-6R mutant is indicated above the histogram. Staining is shown in color, whereas the control staining is shown in gray. One out of three experiments with similar outcome is shown. (B-D) Equal numbers of cells of the indicated Ba/F3-gp130-hIL-6R cell line were incubated for 48 h with increasing amounts (0–100 ng/ml) of either IL-6 or Hyper-IL-6. One representative experiment out of three performed is shown (mean ± SD, biological triplicates). (TIF) Click here for additional data file.

[5] = system: Ba/F3-gp130-hIL-6R-4N cells; assay: Proliferation in response to IL-6 or Hyper-IL-6 (S6D Fig); type: cell-based; settings: highest value = 100, mean of n = 3
Source text: as §4, §3, §5

[6] = system: Ba/F3-gp130-hIL-6R 3N cells; assay: Proliferation in response to IL-6 or Hyper-IL-6 (S6C Fig); type: cell-based; settings: highest value = 100, mean of n = 3
Source text: as §4, §3, §5

[7] = system: recombinant catalytic domain of ADAM17; assay: recombinant catalytic domain of ADAM17 in 25 mM Hepes (pH 9.0); settings: 37°C, up to 16 h

CC[C@H](C)[C@H](NC(=O)[C@@H](N)CC(N)=O)C(=O)N[C@@H](CC(C)C)C(=O)N[C@@H](Cc1ccccc1)C(=O)N[C@@H](CCCNC(=N)N)C(=O)N[C@@H](CC(=O)O)C(=O)N[C@@H](CO)C(=O)N[C@@H](C)C(=O)N[C@@H](CC(=O)N[C@@H]1O[C@H](CO)[C@@H](O[C@@H]2O[C@H](CO)[C@@H](O[C@@H]3O[C@H](CO[C@H]4O[C@H](CO)[C@@H](O)[C@H](O)[C@@H]4O[C@@H]4O[C@H](CO)[C@@H](O[C@@H]5O[C@H](CO)[C@H](O)[C@H](O)[C@H]5O)[C@H](O)[C@H]4NC(C)=O)[C@@H](O)[C@H](O[C@H]4O[C@H](CO)[C@@H](O)[C@H](O)[C@@H]4O[C@@H]4O[C@H](CO)[C@@H](O[C@@H]5O[C@H](CO)[C@H](O)[C@H](O)[C@H]5O)[C@H](O)[C@H]4NC(C)=O)[C@@H]3O)[C@H](O)[C@H]2NC(C)=O)[C@H](O)[C@H]1NC(C)=O)C(=O)N[C@@H](C)C(=O)N[C@H](C(=O)N[C@@H](CO)C(=O)N[C@@H](CC(C)C)C(=O)N1CCC[C@H]1C(=O)N[C@H](C(=O)N[C@@H](CCC(N)=O)C(=O)N[C@@H](CC(=O)O)C(=O)N[C@@H](CO)C(=O)N[C@@H](CO)C(=O)N[C@@H](CO)C(=O)N[C@H](C(=O)N1CCC[C@H]1C(=O)N[C@@H](CC(C)C)C(=O)N1CCC[C@H]1C(=O)O)C(C)C)C(C)C)[C@@H](C)O [5(QD)] (H-NILFRDSAD(X1)ATSLPVQDSSSVPLP-OH; N-terminus and C-terminus assumed)
cleavage by recombinant ADAM17, in words [1]: blocked cleavage
remaining at 16 h [2]: 102%

CC[C@H](C)[C@H](NC(=O)[C@@H](N)CC(N)=O)C(=O)N[C@@H](CC(C)C)C(=O)N[C@@H](Cc1ccccc1)C(=O)N[C@@H](CCCNC(=N)N)C(=O)N[C@@H](CC(=O)O)C(=O)N[C@@H](CO)C(=O)N[C@@H](C)C(=O)N[C@@H](CC(=O)N[C@@H]1O[C@H](CO)[C@@H](O[C@@H]2O[C@H](CO)[C@@H](O[C@@H]3O[C@H](CO[C@H]4O[C@H](CO)[C@@H](O)[C@H](O)[C@@H]4O[C@@H]4O[C@H](CO)[C@@H](O[C@@H]5O[C@H](CO)[C@H](O)[C@H](O)[C@H]5O)[C@H](O)[C@H]4NC(C)=O)[C@@H](O)[C@H](O[C@H]4O[C@H](CO)[C@@H](O)[C@H](O)[C@@H]4O[C@@H]4O[C@H](CO)[C@@H](O[C@@H]5O[C@H](CO)[C@H](O)[C@H](O)[C@H]5O)[C@H](O)[C@H]4NC(C)=O)[C@@H]3O)[C@H](O)[C@H]2NC(C)=O)[C@H](O)[C@H]1NC(C)=O)C(=O)N[C@@H](C)C(=O)N[C@H](C(=O)N[C@@H](CO)C(=O)N[C@@H](CC(C)C)C(=O)N1CCC[C@H]1C(=O)N[C@H](C(=O)N[C@@H](CCC(N)=O)C(=O)N[C@@H](C)C(=O)N[C@@H](CO)C(=O)N[C@@H](CO)C(=O)N[C@@H](CO)C(=O)N[C@H](C(=O)N1CCC[C@H]1C(=O)N[C@@H](CC(C)C)C(=O)N1CCC[C@H]1C(=O)O)C(C)C)C(C)C)[C@@H](C)O [6(QA)] (H-NILFRDSAD(X1)ATSLPVQASSSVPLP-OH; N-terminus and C-terminus assumed)
cleavage by recombinant ADAM17, in words [1]: did not alter processing
remaining at 16 h [2]: 2.44%

IL-6: recombinant human interleukin-6
proliferation, Figure S4H, mean ([3]; cytokine 0.001 ng/ml): 4.604
proliferation, Figure S4H, mean ([3]; cytokine 0.01 ng/ml): 11.7535
proliferation, Figure S4H, mean ([3]; cytokine 0.1 ng/ml): 45.6464
proliferation, Figure S4H, mean ([3]; cytokine 1 ng/ml): 77.0141
proliferation, Figure S4H, mean ([3]; cytokine 10 ng/ml): 92.624
proliferation, Figure S4H, mean ([3]; cytokine 100 ng/ml): 70.8452
proliferation, Figure S6B, mean ([4]; cytokine 0.001 ng/ml): 10.1623
proliferation, Figure S6B, mean ([4]; cytokine 0.01 ng/ml): 21.276
proliferation, Figure S6B, mean ([4]; cytokine 0.1 ng/ml): 41.189
proliferation, Figure S6B, mean ([4]; cytokine 1 ng/ml): 78.0666
proliferation, Figure S6B, mean ([4]; cytokine 10 ng/ml): 86.7819
proliferation, Figure S6B, mean ([4]; cytokine 100 ng/ml): 79.1326
proliferation, Figure S6D, mean ([5]; cytokine 0.001 ng/ml): 7.259
proliferation, Figure S6D, mean ([5]; cytokine 0.01 ng/ml): 22.724
proliferation, Figure S6D, mean ([5]; cytokine 0.1 ng/ml): 61.9479
proliferation, Figure S6D, mean ([5]; cytokine 1 ng/ml): 88.3209
proliferation, Figure S6D, mean ([5]; cytokine 10 ng/ml): 84.8559
proliferation, Figure S6D, mean ([5]; cytokine 100 ng/ml): 63.7775
proliferation, Figure S6C, mean ([6]; cytokine 0.001 ng/ml): 8.138
proliferation, Figure S6C, mean ([6]; cytokine 0.01 ng/ml): 15.3684
proliferation, Figure S6C, mean ([6]; cytokine 0.1 ng/ml): 39.4534
proliferation, Figure S6C, mean ([6]; cytokine 1 ng/ml): 92.5489
proliferation, Figure S6C, mean ([6]; cytokine 10 ng/ml): 89.1651
proliferation, Figure S6C, mean ([6]; cytokine 100 ng/ml): 87.3482

NILFRDSANATSLPVQDSSSVPLP [3(QD)]
not cleaved [7]: 91.4% ± 9.4% intact after 16 h

NILFRDSANATSLPVQDSSSVPLP [5(QD)]
not cleaved [7]: cleavage blocked; mean 101.852% intact after 16 h

NILFRDSANATSLPVQDSSSVPLP [7(QD)]
not cleaved [7]: 91% ± 8% after 16 h

NILFRDSANATSLPVQDSSSVPLP [9(QD)]
not cleaved [7]: cleavage blocked; mean 95.585% intact after 16 h
